The values that follow are results of earlier work, collected in US20210251944A1, “METHODS FOR TREATING A CANCER RESISTANT TO AT LEAST ONE TYROSINE KINASE INHIBITOR” (Del Mar Pharmaceuticals (BC) Ltd., priority 2012, published 2021).

For data set [1] the following is noted: cited from earlier work.
The target in data set [2] is glycogen synthase kinase-3β (GSK-3β) (Homo sapiens, UniProt P49841). As to conditions: cited from earlier work.
In another data set the test system is CML. The following applies: cited from earlier work; for rate of incomplete cytogenetic responses to imatinib: CML.

Where two headings read alike, the source gives them in different places.

Sequence of glycogen synthase kinase-3β (GSK-3β) (P49841 whole entry, species assumed): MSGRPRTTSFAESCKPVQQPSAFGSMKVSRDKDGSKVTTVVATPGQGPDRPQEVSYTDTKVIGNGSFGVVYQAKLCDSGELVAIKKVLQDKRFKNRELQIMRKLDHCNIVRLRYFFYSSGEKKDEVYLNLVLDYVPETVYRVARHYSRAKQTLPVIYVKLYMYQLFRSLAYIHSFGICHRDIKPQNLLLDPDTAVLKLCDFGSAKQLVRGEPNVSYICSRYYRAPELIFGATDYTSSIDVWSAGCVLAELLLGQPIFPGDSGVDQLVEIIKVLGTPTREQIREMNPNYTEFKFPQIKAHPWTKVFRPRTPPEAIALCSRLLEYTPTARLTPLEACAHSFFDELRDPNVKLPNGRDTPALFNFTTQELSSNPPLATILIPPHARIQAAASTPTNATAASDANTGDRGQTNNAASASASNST

Turning to `O[C@H]([C@H](O)[C@@H](O)CBr)[C@H](O)CBr` [Dibromodulcitol, dibromodulcitol], in data set [1], the “absorption by the oral route” value is “rapid and fairly complete”.

Take `CN1C(=O)/C(=C2/C(=O)Nc3ccccc32)c2ccccc21` [Meisoindigo, meisoindigo]: the “concentration for inhibition of glycogen synthase kinase-3β (GSK-3β)” value in data set [2] is 5 to 50 nM.

With `Cc1ccc(NC(=O)c2ccc(CN3CCN(C)CC3)cc2)cc1Nc1nccc(-c2cccnc2)n1` [imatinib], the “rate of incomplete cytogenetic responses to imatinib” value in the data set with CML (individuals in East Asia) is ~50%; with CML (individuals in Europe and North America), 26%. In addition, the “overall odds ratio for resistant disease, patients with the BIM deletion polymorphism compared to those without” value in the data set with CML (chronic phase CML, first-line imatinib 400 mg/day, ELN criteria) is 2.94.
